Values after ≈ are worked out from the molar mass of the structure shown. Values joined by “and” are separate entries in the source; they are usually repeats but may differ in a detail not shown here. Equal entries are not always repeated. Where two headings read alike, the source gives them in different places.
Experiments:
[1] = Pharmacokinetics of decitabine in IVAP rabbit model; type: in vivo, rabbits; details: for bioavailability / AUC(0-inf) / half-life / MRT / TMAX / clearance / Vd / CMAX: rabbit; for MRT: read-out: Mean Residence Time; for clearance: read-out: Clearance (converted); for Vd: read-out: Volume (Vz); for CMAX: read-out: Mean Cmax
Description: Decitabine was administered intravenously to IVAP rabbits (n=3) at three doses: 0.75, 1.5 and 2.5 mg/kg. It was also administered at 2.5mg/kg orally and through previously implanted intestinal and vascular access ports in the portal vein (PV), upper small intestine (USI), lower small intestine (LSI) and colon (IC). All routes received the same simple formulation of raw compound dissolved in cold saline. Care was taken to insure doses were delivered immediately (less than 15 minutes) after dissolving the powder and that the liquid formulation was kept on ice up to the time of administration. Blood samples were taken simultaneously from the median auricular artery and through a port in the portal vein at predetermined time points. Plasma was separated and kept frozen at −70° C. until shipped to Xenobiotic Laboratories for analysis.
Pharmacokinetic parameters were calculated using non-compartmental models with the Winnonlin v3.1 program.

[2] = Physico-chemical properties of decitabine (solubility, stability); type: physicochemical
[3] = plasma, 2.5 mg/kg, 2.5 mg/kg IC
[4] = plasma, 2.5 mg/kg, 2.5 mg/kg LSI
[5] = plasma, 2.5 mg/kg, 2.5 mg/kg USI
[6] = plasma, 2.5 mg/kg, LSI 2.5 mg/kg
[7] = plasma, 2.5 mg/kg, USI 2.5 mg/kg
[8] = plasma, Overall mean of all doses and routes
[9] = plasma, iv, 0.75 mg/kg, 0.75 mg/kg IV
[10] = plasma, iv, 1.5 mg/kg, 1.5 mg/kg IV
[11] = plasma, iv, 2.5 mg/kg, 2.5 mg/kg IV
[12] = plasma, other: portal vein (PV) via implanted access port, 2.5 mg/kg, 2.5 mg/kg PV
[13] = plasma, other: portal vein (PV) via implanted access port, 2.5 mg/kg, PV
[14] = plasma, po, 2.5 mg/kg, 2.5 mg/kg Oral
[15] = plasma, po, 2.5 mg/kg, Oral 2.5 mg/kg

Individual systemic Bioavailability ([1]; PO 2.5 mg/kg, 2.5 mg/kg): 28.57% and 38.84% | systemic Bioavailability, Mean ([1]; PO 2.5 mg/kg, 2.5 mg/kg): 35.51% | Individual systemic Bioavailability ([1]; PV 2.5 mg/kg): 79.63% and 58.11% and 66.02% | systemic Bioavailability, Mean ([1]; PV 2.5 mg/kg): 67.92% | Individual systemic Bioavailability ([1]; USI 2.5 mg/kg): 84.33% and 72.64% | systemic Bioavailability, Mean ([1]; USI 2.5 mg/kg): 73.94% | bioavailability ([1]; plasma (systemic), 2.5 mg/kg, IC 2.5 mg/kg, read-out: systemic Bioavailability, Mean): 34.3% | bioavailability ([1]; plasma (systemic), 2.5 mg/kg, LSI 2.5 mg/kg, read-out: Individual systemic Bioavailability): 55% | bioavailability ([1]; plasma (systemic), 2.5 mg/kg, LSI 2.5 mg/kg, read-out: systemic Bioavailability, Mean): 50.4% | bioavailability ([1]; plasma (systemic), 2.5 mg/kg, USI 2.5 mg/kg, read-out: Individual systemic Bioavailability): 64.8% | bioavailability ([1]; plasma (systemic), po, 2.5 mg/kg, PO 2.5 mg/kg, read-out: Individual systemic Bioavailability): 39.1% | AUC(0-inf) ([1]; plasma (systemic, median auricular artery), 2.5 mg/kg, USI 2.5 mg/kg, read-out: Mean AUC0-inf in Systemic Samples): 837 ng·h/mL | AUC(0-inf) ([1]; plasma (systemic, median auricular artery), po, 2.5 mg/kg, Oral 2.5 mg/kg, read-out: Mean AUC0-inf in Systemic Samples): 402 ng·h/mL | half-life [1, 3]: 40.8 ± 0.6 min | MRT [1, 3]: 64.2 ± 1.2 min | half-life [1, 4]: 44.4 ± 3.6 min | MRT [1, 4]: 55.2 ± 5.4 min | half-life [1, 5]: 47.4 ± 5.4 min | MRT [1, 5]: 55.2 ± 4.8 min | TMAX ([1]; plasma, 2.5 mg/kg, IC 2.5 mg/kg): 15 min | clearance ([1]; plasma, 2.5 mg/kg, IC): 36.8 mL/min/kg | Vd ([1]; plasma, 2.5 mg/kg, IC): 2.16 L/kg | TMAX [1, 6]: 8.4 ± 5.76 min | CMAX [1, 6]: 736 ± 95.6 ng/mL | clearance ([1]; plasma, 2.5 mg/kg, LSI): 37.2 mL/min/kg | Vd ([1]; plasma, 2.5 mg/kg, LSI): 2.37 L/kg | bioavailability ([1]; plasma, 2.5 mg/kg, PV 2.5 mg/kg, read-out: systemic Bioavailability, Mean): 67.9% | TMAX [1, 7]: 4.98 min | CMAX [1, 7]: 1220 ± 280 ng/mL | bioavailability ([1]; plasma, 2.5 mg/kg, USI 2.5 mg/kg, read-out: systemic Bioavailability, Mean): 73.9% | clearance ([1]; plasma, 2.5 mg/kg, USI): 37.2 mL/min/kg | Vd ([1]; plasma, 2.5 mg/kg, USI): 2.51 L/kg | half-life [1, 8]: 43.2 ± 4.2 min | MRT [1, 8]: 55.8 ± 6.6 min | half-life [1, 9]: 43.8 ± 1.8 min | MRT [1, 9]: 50.4 ± 1.8 min | AUC(0-inf) ([1]; plasma, iv, 0.75 mg/kg, IV 0.75 mg/kg, read-out: IV AUC0-inf, Mean): 340 ng·h/mL | AUC(0-inf) ([1]; plasma, iv, 0.75 mg/kg, IV 0.75 mg/kg, read-out: IV AUC0-inf, individual): 323 ng·h/mL | half-life [1, 10]: 45 ± 2.4 min | MRT [1, 10]: 49.8 ± 1.8 min | AUC(0-inf) ([1]; plasma, iv, 1.5 mg/kg, IV 1.5 mg/kg, read-out: IV AUC0-inf, Mean): 574 ng·h/mL | AUC(0-inf) ([1]; plasma, iv, 1.5 mg/kg, IV 1.5 mg/kg, read-out: IV AUC0-inf, individual): 557 ng·h/mL | half-life [1, 11]: 35.4 ± 1.2 min | MRT [1, 11]: 49.8 ± 9 min | AUC(0-inf) ([1]; plasma, iv, 2.5 mg/kg, IV 2.5 mg/kg, read-out: IV AUC0-inf, Mean): 1060 ng·h/mL | AUC(0-inf) ([1]; plasma, iv, 2.5 mg/kg, IV 2.5 mg/kg, read-out: IV AUC0-inf, individual): 1170 ng·h/mL | clearance ([1]; plasma, iv, IV (overall)): 40 mL/min/kg | Vd ([1]; plasma, iv, IV (overall)): 2.41 ± 0.41 L/kg | bioavailability ([1]; plasma, other: portal vein (PV) port, 2.5 mg/kg, PV 2.5 mg/kg, read-out: systemic Bioavailability, Mean): 68% | half-life [1, 12]: 46.2 ± 4.2 min | MRT [1, 12]: 48 ± 3.6 min | clearance [1, 13]: 55.2 mL/min/kg | Vd [1, 13]: 3.63 L/kg | bioavailability ([1]; plasma, other: upper small intestine (USI) port, 2.5 mg/kg, USI 2.5 mg/kg, read-out: systemic Bioavailability, Mean): 74% | half-life [1, 14]: 41.4 ± 15.6 min | MRT [1, 14]: 72.6 ± 24 min | TMAX [1, 15]: 25.2 ± 8.4 min | CMAX [1, 15]: 335 ± 134 ng/mL | bioavailability ([1]; plasma, po, 2.5 mg/kg, PO 2.5 mg/kg, read-out: systemic Bioavailability, Mean): 35.5% | AUC(0-inf) ([1]; portal vein plasma, 2.5 mg/kg, LSI 2.5 mg/kg, read-out: Mean AUC0-inf in Portal Vein): 586 ng·h/mL | AUC(0-inf) ([1]; portal vein plasma, 2.5 mg/kg, USI 2.5 mg/kg, read-out: Mean AUC0-inf in Portal Vein): 833 ng·h/mL | AUC(0-inf) ([1]; portal vein plasma, po, 2.5 mg/kg, Oral 2.5 mg/kg, read-out: Mean AUC0-inf in Portal Vein): 397 ng·h/mL | AUC(0-inf) ([1]; systemic plasma (median auricular artery), 2.5 mg/kg, LSI 2.5 mg/kg, read-out: Mean AUC0-inf in Systemic Samples): 571 ng·h/mL | moisture at equilibrium of monohydrate formed on exposure to humidity [2]: 7% | solubility in alcohol [2]: highly soluble | solid remains stable ([2]; 15-30° C., not exposed to humidity): 36 months | degradation rate in aqueous environment ([2]; pH 7 and 2-8° C.): about 0.7 %/hr | degradation rate in aqueous environment ([2]; pH 7 and 25° C.): 2.5 %/hr | solubility ([2]; water): ~25 mg/mL (≈ 110 mM)
Structure (SMILES): Nc1ncn([C@H]2C[C@H](O)[C@@H](CO)O2)c(=O)n1 [decitabine, 5-aza-2′-deoxycytidine]

From patent US20040162263A1, “Pharmaceutical formulations targeting specific regions of the gastrointesinal tract” (priority 2002, published 2004)
